Measurements: patent publication US11246907B2, “Immunosuppressive agents and their use in therapy” (Norwegian University of Science and Technology, priority 2013, dated 2022)
Ends that are not written are not given here.

Columns and labels:
[1] = test system: JJN-3 cells; assay: Cell survival (MTT) assay, multiple myeloma cell line JJN-3; format: cell-based; conditions: 6 μM ATX-101 with 5 μM LY294002 or 10 μM SB20358
Description: Phosphorylated kinase levels were corrected for loading differences (β-tubulin) and normalized to untreated control cells. Data is from three independent experiments (mean±SD).
The multiple myeloma cell lines JJN-3 (gift from J. Ball, University of Birmingham, United Kingdom) were grown in RPMI 1640 (Sigma-Aldrich, Schnelldorf, Germany) supplemented with 10% FCS, 2 mM glutamine (Sigma-Aldrich), 2.5 μg/ml amphotericin B (Sigma-Aldrich) and 100 μg/ml gentamicin (Invitrogen, Carlsbad, Calif., USA). HaCaT cells (spontaneously transformed keratinocytes) were cultured in DMEM (Sigma-Aldrich) containing FCS, glutamine, amphotericin B, and gentamicin. All cells were cultured at 37° C. in a humidified atmosphere of 5% CO2.
(§1) Cells were seeded into 96-well plates and ATX-101, kinase inhibitors (SB203580 and BIRB0796), and polyIC were added alone or in combination at the indicated concentrations. Cells were exposed continuously and harvested every day for the next four days using the MTT (3-(4.5-Dimethylthiazol-2-yl)-2.5 diphenyl-tetrazolium bromide) assay (Gilljam et al., 2009, supra). The average from at least 4 wells was used to calculate cell survival.

[2] = test system: RPMI-8226; assay: Cell growth/cytotoxicity, multiple myeloma cell line RPMI-8226; format: cell-based
Description: as §1
To further elucidate whether ATX-101 directly affected the MAPK and PI3K pathways, we analyzed the phosphorylation levels of downstream kinases in JJN-3 cells at different time points after ATX-101 addition. The phosphorylation of Akt and the p70 S6 kinase (downstream of mTOR) were both decreased by ATX-101 treatment.

[3] = test system: p70 S6 kinase Thr389 phosphorylation; assay: Western blot of p70 S6 kinase Thr389 phosphorylation in JJN-3 cells; format: cell-based; conditions: 6 μM ATX-101, 4, 8, 24 h
[4] = test system: ERK1 Thr202/Tyr204 and ERK2 Thr185/Tyr187 phosphorylation; assay: Western blot of ERK1/2 phosphorylation in JJN-3 cells; format: cell-based; conditions: 6 μM ATX-101, 4, 8, 24 h
[5] = test system: IFN-β; assay: IFN-β ELISA on supernatants of stimulated monocytes; format: cell-based, human; conditions: LPS- and polyIC-stimulated monocytes; 4 μM (donor 1: 6 μM), 4 h
Description: Measured cytokine levels were normalized to cytokine levels from monocytes stimulated with TLR ligand alone. A two fold or higher increase in cytokine level after TLR stimulation was defined as cytokine induction. […] Isolated monocytes were stimulated with 10 ng/ml LPS and 40 μg/ml polyIC alone and in combination with 4 μM ATX-101 for 4 h. […] DRAQS was used for nuclear staining. Bar, 5 μm.
Peripheral blood mononuclear cells were isolated from A+ buffy coats (Blood Bank, St. Olav's University Hospital, Trondheim, Norway) by density gradient centrifugation (Lymphoprep; Axis-Shield PoC, Oslo, Norway). Mononucleated cells were seeded at 4 million cells/ml in serum-free RPMI 1640 supplemented with glutamine and gentamicin. […]
Monocytes were stimulated as described above. IFN-β was measured in supernatants with the VeriKine-HSTMHuman IFN-β Serum ELISA kit (Pestka Biomedical Laboratories, Piscataway, N.J., USA) according to the manufacturer's instructions with the following adaptions: the amount of supernatant was doubled from 50 to 100 μl; sample buffer was reduced from 50 to 25 μl; and antibody solution was reduced from 50 to 25 μl (reducing assay diluent, keeping same volume of antibody concentrate and diluent additive). The OD was measured at 450 nm.

[6] = test system: monocytes; assay: Annexin staining / flow cytometry of monocytes (apoptosis); format: cell-based, human; conditions: for Percentage of annexin positive cells: 4 hours, monocytes
Description: Annexin staining was used to determine cell viability and cells were counted using flow cytometry.
Peripheral blood […] were isolated from A+ buffy coats (Blood Bank, St. Olav's University Hospital) by density gradient centrifugation (Lymphoprep; Axis-Shield PoC, Oslo, Norway). The adherent cell fraction after 90 minute incubation, termed monocytes, were washed twice with HANKS and maintained in RPMI 1640 supplemented with 2 mM glutamine, […] gentamicin and 25% heat-inactivated HS over-night. Cells were cultured at 37° C. in a humidified atmosphere of 5% CO2 over-night. […] An R11 peptide and no peptide treatment were used as controls. After 4 hours, the cells were washed once in PBS, and re-suspended in buffer as recommended by the manufacturer of the Annexin V-Pacific Blue kit (Invitrogen). Cells were identified monocytes according to size (FSC) and granularity (SSC).

[7] = test system: normal cells; conditions: 4 μM dose; cited from earlier work

Ac-MDRWLVKWKKKRKIRRRRRRRRRRR [ATX-101]
growth-inhibitory effect of kinase inhibitors in combination with ATX-101 (cell growth, MTT) [1]: increased the growth-inhibitory effect of p38 MAPK and class I PI3K inhibitors | cytotoxic effects of melphalan in combination with kinase inhibitors and ATX-101 [2]: enhanced the cytotoxic effects of melphalan | growth-inhibitory effects of ERK5 and MEK1 inhibitors in combination with ATX-101 [2]: increased the growth-inhibitory effects of ERK5 and MAPK kinase 1 (MEK1) inhibitors | phosphorylation of p70 S6 kinase [3]: decreased | ERK1/2 phosphorylation [4]: transient increase | IFN-β secretion [5]: decreased the IFN-β secretion | Percentage of annexin positive cells ([6]; 5μM peptide treatment): 72% | Percentage of annexin positive cells ([6]; 10 μM peptide treatment): 79% | induction of apoptosis in monocytes ([6]; at the concentration used for cytokine secretion (4 μM)): did not induce apoptosis | toxicity on normal cells in BMCS assays [7]: low toxicity
